Reference: paper PMC9136116, “The activity of the serotonergic 5-HT1A receptor is modulated by voltage and sodium levels” (The Journal of Biological Chemistry, 2022)
Read-outs that look alike come from different tables or passages of the source.

Legend:
5-HT1A receptor [1] = molecular target: T1, 5-HT1A receptor (Homo sapiens, UniProt P08908); conditions: for voltage dependence of potency: −80 mV versus +40 mV
T1 sequence (P08908 1-422): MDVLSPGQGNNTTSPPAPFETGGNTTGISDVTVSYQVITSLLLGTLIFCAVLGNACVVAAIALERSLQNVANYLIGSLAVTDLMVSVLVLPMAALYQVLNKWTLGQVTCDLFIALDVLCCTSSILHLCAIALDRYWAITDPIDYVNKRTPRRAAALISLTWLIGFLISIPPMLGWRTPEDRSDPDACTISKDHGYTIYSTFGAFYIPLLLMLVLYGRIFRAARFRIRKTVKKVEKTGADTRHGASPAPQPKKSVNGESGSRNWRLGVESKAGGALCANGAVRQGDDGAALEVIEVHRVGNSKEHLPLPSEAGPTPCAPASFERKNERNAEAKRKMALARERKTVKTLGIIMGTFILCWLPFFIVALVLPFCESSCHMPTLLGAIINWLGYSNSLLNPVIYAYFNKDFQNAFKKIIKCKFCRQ

5-HT1A receptor [2] = molecular target: T1, 5-HT1A receptor; assay: cell-based; parameters: Emax: dose or concentration left out as unconfirmed; conditions: for EC50: EC50 (activation of receptor-mediated GIRK current), wt receptor, 72 mM Na+ solution

voltage dependence of potency (5-HT1A receptor [1]) | Emax (5-HT1A receptor [2]; read-out: maximal response relative to the maximal response produced by 5-HT) | effect of removal of extracellular Na+ on maximal I5-HT (5-HT1A receptor [1]; 5 μM 5-HT, Na+-free versus 72 mM Na+) | decrease of potency by depolarization (5-HT1A receptor [1]; +40 mV versus −80 mV, 72 mM Na+) | EC50 (5-HT1A receptor [2]; holding potential +40 mV) | EC50 (5-HT1A receptor [2]; holding potential −80 mV) | Emax (5-HT1A receptor [2]; read-out: maximal response relative to the maximal response evoked by 5-HT at the same oocytes) | Structure (SMILES)
not voltage dependent | ~42% | – | – | – | – | – | O=C1CC2(CCCC2)CC(=O)N1CCCCN1CCN(c2ncccn2)CC1 [buspirone]
– | – | did not affect the maximal current | more than 20 fold | – | – | – | NCCc1c[nH]c2ccc(O)cc12 [5-HT, 5-hydroxytryptamine]
voltage-dependent | – | – | – | 938 nM | 194 nM | ~55% | O=C1[C@@H]2[C@H]3CC[C@H](C3)[C@@H]2C(=O)N1CCCCN1CCN(c2ncccn2)CC1 [tandospirone]
